According to patent publication US20150274680A1, “THERAPEUTIC OR PROPHYLACTIC AGENT FOR TUMOR LYSIS SYNDROME” (University of Fukui, priority 2012, published 2015):

What was measured:
Format in all cases: in vivo, human
[1] = tested on: high-risk tumor lysis syndrome patient; assay: Therapeutic effect on serum uric acid levels and renal function in a high-risk tumor lysis syndrome patient (Example 1)
Protocol: In order to investigate the therapeutic effects of febuxostat on a high-risk tumor lysis syndrome patient, a high-risk patient with tumor lysis syndrome which had occurred without antitumor therapy, and already presented hyperuricemia, was given transfusions of fresh frozen plasma and packed red blood cells, and then in addition to increasing a urine volume by supplying fluid and to alkalizing urine, febuxostat (60 mg) was orally administered for 3 days, and the serum uric acid levels and renal function were compared with those before administration of febuxostat.
A person, Myelodysplastic syndrome (MDS), White blood cell count (WBC) 15400/μL

[2] = tested on: malignant tumor patients with tumor lysis syndrome; assay: Prophylactic effect on serum uric acid levels when chemotherapy is performed on malignant tumor patients with tumor lysis syndrome (Example 3); conditions: oral once daily from before chemotherapy, adult and pediatric patients; written in present tense, no data
Protocol: In order to investigate prophylactic effects of febuxostat on tumor lysis syndrome, febuxostat is orally administered once a day, daily, from before chemotherapy is performed on a malignant tumor adult patient with tumor lysis syndrome, and an assessment is made by using serum uric acid levels as indicators. In addition, also for a malignant tumor pediatric patient with tumor lysis syndrome, similar investigation is conducted with febuxostat.

[3] = tested on: patients with hematological malignancies at low or intermediate risk for tumor lysis syndrome; assay: Prophylactic effect on serum uric acid, renal function and urinary uric acid excretion in patients with hematological malignancies receiving chemotherapy (Example 2)
Protocol: In order to investigate the prophylactic effects of febuxostat on tumor lysis syndrome, 10 mg of febuxostat (the starting dose in gout and hyperuricemia) was orally administered once a day, daily, from just before or the day before chemotherapy was performed on patients with hematological malignancies at low or intermediate risk for tumor lysis syndrome, and the serum uric acid level and the renal function on the fifth day of administration were compared with those before the start of febuxostat administration. For cases in which urine collection was possible, the urinary excretion level of uric acid on the fifth day of administration was compared with that before the start of febuxostat administration. […] Seven male and female cases (6 males and 1 female), aged 36 to 79 (median 70), acute myeloid leukemia (AML 3 cases), diffuse large B-cell lymphoma (DLBCL 2 cases), chronic myelomonocytic leukemia (CMML 1 case), chronic myeloid leukemia (CML 1 case), white blood cell count (WBC) 3,200 to 347,000/μL [table]

Cc1nc(-c2ccc(OCC(C)C)c(C#N)c2)sc1C(=O)O [febuxostat, 2-[3-cyano-4-(2-methylpropoxyl)phenyl]-4-methylthiazole-5-carboxylic acid]
Serum creatinine (Cre) ([1]; Day 4, after 3 days of febuxostat 60 mg/day, 0.87 mg/dL before administration): 0.73 mg/dL
Estimated glomerular filtration rate (eGFR) ([1]; Day 4, after 3 days of febuxostat 60 mg/day, 53 mL/min before administration): 64 mL/min
Serum uric acid level (UA) ([1]; Day 4, after 3 days of oral febuxostat 60 mg/day, person, MDS, 9.7 mg/dL on the day before administration): 1.7 mg/dL
Reduction of serum uric acid level ([1]; Day 4 vs day before administration, febuxostat 60 mg/day for 3 days): 82.4%
Prevention of tumor lysis syndrome (serum uric acid levels as indicators) [2]: effective for the prevention of tumor lysis syndrome
Serum uric acid level (UA), Case 2 ([3]; Case 2 (AML), fifth day of febuxostat 10 mg/day, 1.9 mg/dL before administration): 2.3 mg/dL
Urinary excretion level of uric acid (urinary UA), Case 2 ([3]; Case 2, fifth day of febuxostat 10 mg/day, 0.8 g/day before administration): 1.6 g/day
Estimated glomerular filtration rate (eGFR), Case 2 ([3]; Case 2, fifth day of febuxostat 10 mg/day, 101 mL/min before administration): 99 mL/min
Acute renal failure ([3]; all cases, febuxostat 10 mg/day with chemotherapy): in all cases, acute renal failure was prevented
Serum uric acid levels relative to normal levels ([3]; all cases, prophylactic febuxostat 10 mg with chemotherapy, normal level 7.5 mg/dL or less): maintain the serum uric acid levels within or lower them to within normal levels
Urinary excretion level of uric acid (urinary UA), average ([3]; cases where urine collection was possible, fifth day of febuxostat 10 mg/day, 1.2 g/day on average before administration): 0.9 g/day
Serum uric acid level (UA), average ([3]; fifth day of febuxostat 10 mg once daily oral, average of 7 cases, 6.3 mg/dL on average before administration): 4.6 mg/dL
Estimated glomerular filtration rate (eGFR), average ([3]; fifth day of febuxostat 10 mg once daily, average, 69.7 mL/min on average before administration): 76.9 mL/min
Urinary excretion level of uric acid (urinary UA), severe case with high WBC ([3]; severe case in which WBC was high, fifth day of febuxostat 10 mg/day, 2.4 g/day before administration): 0.7 g/day
